Values of other authors, collected in patent publication US20230158004A1, “ENTERIC-COATED PREPARATION COMPRISING PIRFENIDONE HAVING IMPROVED SAFETY AND STABILITY, AND METHOD FOR PREPARING SAME” (YUNGJIN PHARM. CO., LTD., priority 2020, published 2023).

Conditions: healthy adults and patients with idiopathic pulmonary fibrosis, total 1,650 people

For `Cc1ccc(=O)n(-c2ccccc2)c1` [pirfenidone, 5-methyl-1-phenyl-2-(1H)-pyridone], the anorexia is listed as 11.4%, the diarrhea is listed as 18.8% and the headache is listed as 10.1%. The indigestion was 16.1%, the nausea was 32.4% and the photosensitivity was 9.3%. The rash was 26.2%.
